Here are results for three molecules from patent US20250118786A1, “LONG-LIVED REDOX-ACTIVE MOLECULES WITH LOW REDOX POTENTIAL” (President and Fellows of Harvard College, priority 2021, published 2025).

Where two headings read alike, the source gives them in different places. Where only a bound is given, the exact number is not on record here.

Data set [1] in a line: Solubility in water and salt solutions. It counts as physicochemical.
A short description of data set [2]: Cyclic voltammetry (three-electrode system). Type of data set: physicochemical. The protocol:
A glassy carbon (BASi, 3 mm diameter) working electrode, an Ag/AgCl reference electrode (BASi, 3 M NaCl solution), and a graphite counter electrode were used in the three-electrode system for all CV tests. The scan rates for CV tests were 10, 20, 50, 100, and 200 mV s^−1. The diffusion coefficient D was calculated based on the Randles-Sevcik equation: Ip=269000×n^1.5 AD^0.5v^0.5C, where Ip is the peak current in amps, n is the number of electrons involved (n=2 for 2,6-N-TSAQ) in the redox reaction, A is the active surface area (0.0707 cm^2), D is the diffusion coefficient in cm^2/s, v is the scan rate in V/s, and C is the concentration of redox species in mol/cm^3.
The reduction potential of 2,6-N-TSAQ is-0.62 V vs. SHE in 1M NaCl, which is 120 mV and 170 mV lower than that of 2,6-O-DPSAQ and 2,6-DPSAQ in 1M NaCl, respectively. The low redox potential of 2,6-N-TSAQ is attributed to the strong electron donating effect of N-alkyl group. It contributes to form a high working voltage and high power density flow battery. […] The ammonium cation, however, sacrifices the redox potential of 2,6-N-TSAQ as the local pH is always lower than the pKa2 of 9,10-dihydroxyanthracene, which is also observed in the reported 9,10-anthraquinone-2,7-disulfonic diammonium salt.

Data set [3] in a line: Long-term cycling of 0.1 M 2,6-N-TSAQ/ferrocyanide flow cell. The protocol: Flow battery experiments were performed with cell and hardware from Fuel Cell Tech. (Albuquerque, NM). Pyrosealed POCO graphite flow plates with serpentine flow designs were used for both electrodes. Each electrode comprised a single 5 cm^2 geometric surface area sheet of AvCarb carbon electrode. For 2,6-N-TSAQ/ferrocyanide full cell tests, a Nafion™ 212 membrane was used to serve as the ion-selective membrane. The Nafion membrane was soaked in the supporting electrolyte (sodium hydroxide or sodium chloride) for at least 24 hours before use. Viton sheets were used to cover the outer portion space between the electrodes. Torque used for cell assembly was 60 lb-in (6.78 Nm) on each of eight 1/4-28 bolts. The electrolytes were fed into the cell through fluorinated ethylene propylene (FEP) tubing at a rate of 60 mL/min, controlled by Cole-Parmer 6 Masterflex L/S peristaltic pumps. The cell was run inside a glove box (1 ppm O2). Cell polarization measurements and charge-discharge cycling were conducted using a Biologic BCS-815 battery cycler. […] The polarization curves were obtained by charging to a desired state of charge first and then polarizing via linear sweep voltammetry at a rate of 100 mV s^−1.
Long-term cycling testing of 0.1 M 2,6-N-TSAQ/ferrocyanide was performed with the same cell. The cell was cycled at 40 mA cm^2 with potential holds at 1.4 V for charging and 0.6 V for discharging until the current density dropped to 2 mA cm^−2. The initial discharge capacity was 4.764 Ah L^−1, corresponding to a capacity utilization of 88.9% of the theoretical value. However, the OCV at different SOC values in FIG. 8 (a) and the typical voltage profile in FIG. 9 (c) indicates it accesses the complete capacity of 2,6-N-TSAQ under such conditions. The differences between the actual capacity and the theoretical value could come from non-redox active impurities such as water or salts in the sample. […] The average coulombic efficiency was determined to be above 99.9%. […]

A short description of data set [4]: Storage in 1 M NaCl at 65° C. for 8 days, 1H NMR. It counts as physicochemical. The text has this:
For comparison, the long-term cycling of the 0.1 M 2,6-N-TSAQ/ferrocyanide cell was operated at neutral condition (1 M sodium chloride) but, otherwise, the same conditions. The initial volumetric capacity was 4.774 Ah L^−1, which is similar to that at pH 14. After 2.84 days cycling, the discharge capacity dropped to 4.412 Ah/L, corresponding to a capacity fade rate of 2.6%/day, which is around 2 orders magnitude higher than that at pH 14. And the coulombic efficiency is around 99.8% over the whole cycling process, which is slightly lower than that at pH 14. […] To investigate the origin of instability of 2,6-N-TSAQ at neutral condition, both oxidized and reduced forms of 2,6-N-TSAQ were stored in 1 M NaCl at 65° C. for 8 days.

Setting [5] is: water, read-out: water solubility.

As for `O=C1c2ccc(CCCS(=O)(=O)[O-])cc2C(=O)c2ccc(CCCS(=O)(=O)[O-])cc21.[Na+].[Na+]` [2,6-DPSAQ, sodium 3,3′-(9,10-anthraquinone-2,6-diyl)bis(propane-1-sulfonate)], the solubility (usually the concentration that dissolves in the medium under given conditions) in data set [1] (setting [5]) came out at 300 mM.
`O=C1c2ccc(N(CCCS(=O)(=O)O)CCCS(=O)(=O)O)cc2C(=O)c2ccc(N(CCCS(=O)(=O)O)CCCS(=O)(=O)O)cc21` [2,6-N-TSAQ, sodium 3,3′,3″,3′″-((9,10-anthraquinone-2,6-diyl)bis(azanetriyl))tetrakis(propane-1-sulfonate)]: the reduction potential in data set [2] (1M NaCl (unbuffered)) is listed as −0.62 V vs. SHE. Also, the “reduction potential lower than that of 2,6-DPSAQ” value in data set [2] (difference versus 2,6-DPSAQ) worked out at 170 mV. Also, the “reduction potential lower than that of 2,6-O-DPSAQ” value in data set [2] (difference versus 2,6-O-DPSAQ) worked out at 120 mV. Besides, in data set [3] (neutral condition (1 M sodium chloride), 0.1 M, 2.84 days cycling), the capacity fade rate stood at 2.6 %/day. Besides, in data set [3] (pH 14, 0.1 M, full SOC range cycling), the “cycle-denominated capacity fade rate” value amounted to 0.00024 %/cycle. For the same molecule, the “temporal capacity fade rate” value in data set [3] (pH 14, 0.1 M, full SOC range cycling, 9 days) came out at 0.025 %/day. In addition, the solubility came to 650 mM in data set [1] (water, with ammonium ion exchange, read-out: solubility) and 450 mM in data set [1] (setting [5]). For the same molecule, in data set [4] (oxidized form), the “decomposition by 1H NMR, oxidized state” value is listed as “no apparent decomposition”. Moreover, the “decomposition by 1H NMR, reduced state” value in data set [4] (reduced form) was “a large quantity of decomposition”.
On to `O=C1c2ccc(OCCCS(=O)(=O)[O-])cc2C(=O)c2ccc(OCCCS(=O)(=O)[O-])cc21.[Na+].[Na+]` [2,6-O-DPSAQ, sodium 3,3′-((9,10-anthraquinone-2,6-diyl)bis(oxy))bis(propane-1-sulfonate)], for which the solubility was 10 mM in data set [1] (1 M lithium chloride, saline or isotonic, 1 M lithium chloride, read-out: solubility); < 5 mM in data set [1] (1 M sodium chloride, saline or isotonic, 1 M sodium chloride, read-out: solubility); 10 mM in data set [1] (deionized water, water, deionized water, read-out: solubility).
